# Measurements published in ChEMBL document CHEMBL4513139, “CO-ADD screening of University of Strathclyde (UK) compounds”.
# Where “and” joins values, the source holds several entries; their conditions need not be identical. Equal values may be shown once.
# How the values were obtained:
# Candida albicans [1] = test: microbe, parasite or virus in culture; details: ATCC 90028, ASSAY_TEST Inhibition of Fungal Growth, detection method Absorption (OD530), plate type 384well, NBS, CORNING #3640
# Description: (§1) Antifungal activity against Candida albicans ATCC 90028 (CO-ADD:FG_001); MIC in YNB media using NBS plates, by OD630
# HEK293 = test: cells; assay type: functional, Homo sapiens, ATCC CRL1573; details: ASSAY_TEST Inhibition of Cell Viability, detection method Resazurin, Fluorescence (ex560/em590), MEDIA DMEM with 10% FBS, plate type 384well, TC, CORNING #3712, time 18 hr
# Staphylococcus aureus [2] = test: microbe, parasite or virus in culture; details: ATCC 43300, 18 h, ASSAY_TEST Inhibition of Bacterial Growth, detection method Absorption (OD600), MEDIA CAMHB, plate type 384well, NBS, CORNING #3640
# Description: (§2) Antibacterial activity against Staphylococcus aureus MRSA ATCC 43300 (CO-ADD:GP_020); MIC in CAMBH media, using NBS plates, by OD(600)
# Pseudomonas aeruginosa = test: microbe, parasite or virus in culture; details: ATCC 27853, 18 h, ASSAY_TEST Inhibition of Bacterial Growth, detection method Absorption (OD600), MEDIA CAMHB, plate type 384well, NBS, CORNING #3640
# Description: Antibacterial activity against Pseudomonas aeruginosa ATCC 27853 (CO-ADD:GN_042); MIC in CAMBH media using NBS plates, by OD(600)
# Klebsiella pneumoniae = test: microbe, parasite or virus in culture; details: ATCC 700603, 18 h, ASSAY_TEST Inhibition of Bacterial Growth, detection method Absorption (OD600), MEDIA CAMHB, plate type 384well, NBS, CORNING #3640
# Description: Antibacterial activity against Klebsiella pneumoniae MDR ATCC 70063 (CO-ADD:GN_003); MIC in CAMBH media using NBS plates, by OD(600)
# Escherichia coli = test: microbe, parasite or virus in culture; details: ATCC 25922, 18 h, ASSAY_TEST Inhibition of Bacterial Growth, detection method Absorption (OD600), MEDIA CAMHB, plate type 384well, NBS, CORNING #3640
# Description: Antibacterial activity against Escherichia coli ATCC 25922 (CO-ADD:GN_001); MIC in CAMBH media using NBS plates, by OD(600)
# Acinetobacter baumannii = test: microbe, parasite or virus in culture; details: ATCC 19606, 18 h, ASSAY_TEST Inhibition of Bacterial Growth, detection method Absorption (OD600), MEDIA CAMHB, plate type 384well, NBS, CORNING #3640
# Description: Antibacterial activity against Acinetobacter baumannii ATCC 19606 (CO-ADD:GN_034); MIC in CAMBH media using NBS plates, by OD600
# Candida albicans [3] = details: ASSAY_TEST Inhibition of Fungal Growth; detection method Absorption (OD530); plate type 384well; NBS; CORNING #3640
# Description: as §1
# Staphylococcus aureus [4] = details: ASSAY_TEST Inhibition of Bacterial Growth, detection method Absorption (OD600), MEDIA CAMHB, plate type 384well, NBS, CORNING #3640, time 18 hr
# Description: as §2
# [5] = Homo sapiens, ATCC CRL1573, HEK293, read-out: CC50
# Description for Cryptococcus neoformans: Antifungal activity against Cryptococcus neoformans H99 ATCC 208821 (CO-ADD:FG_002); MIC in YNB media using NBS plates, by Resazurin OD(600-570)
Compound,MIC (Candida albicans [1]) [µg/mL],MIC (Cryptococcus neoformans) [µg/mL],MIC (Staphylococcus aureus [2]) [µg/mL],MIC (Pseudomonas aeruginosa) [µg/mL],MIC (Klebsiella pneumoniae) [µg/mL],MIC (Escherichia coli) [µg/mL],MIC (Acinetobacter baumannii) [µg/mL],MIC (Candida albicans [3]),MIC (Staphylococcus aureus [4]) [µg/mL],CC50 (HEK293; [5]) [µg/mL],CC50 (HEK293)
CC(C)CCc1sc(NC(=O)c2cc(NC(=O)c3cc(NC(=N)c4ccccc4)cn3C)cn2C)nc1C(=O)NCCCN(C)C.O=C(O)C(F)(F)F.O=C(O)C(F)(F)F,> 32,4,> 32,> 32,> 32,> 32,> 32,–,–,> 32,–
CC(C)n1cc(NC(=O)c2cc(NC(=O)c3cc4ccccc4oc3=O)cn2C)cc1C(=O)Nc1cc(C(=O)NCCCN(C)C)n(C)c1.O=C(O)C(F)(F)F,> 32,32,> 32,> 32,> 32,> 32,> 32,–,–,> 32,–
Cn1cc(NC(=O)c2cc(NC(=O)c3cc4ccccc4cn3)cn2C)cc1C(=O)NCCN1CCOCC1.O=C(O)C(F)(F)F,> 32,> 32,> 32,> 32,> 32,> 32,> 32,–,–,> 32,–
Cn1cc(NC(=O)c2ccc(/C=C/c3cnc4ccccc4c3)cc2)cc1C(=O)Nc1cc(C(=O)NCCN2CCOCC2)n(CCCc2cn(CCc3ccccc3)nn2)c1.O=C(O)C(F)(F)F,> 32,16,> 32,> 32,> 32,> 32,> 32,–,–,> 32,–
Cn1cc(NC(=O)c2cc(NC(=O)c3cc(NC(=O)c4ccc(Cl)cc4Cl)cn3C)cn2C)cc1C(=O)NCCCN1CCOCC1.O=C(O)C(F)(F)F,> 32,> 32,> 32,> 32,> 32,> 32,> 32,–,–,7.32,–
CC(C)c1sc(NC(=O)c2cc(NC(=O)c3cc(NC(=O)c4cc(NC=O)cn4C)cn3C)cn2C)nc1C(=O)NCCCN(C)C.O=C(O)C(F)(F)F,> 32,> 32,16,> 32,> 32,> 32,> 32,–,–,> 32,–

# More lines, main results first:
MIC (Candida albicans [1]) [µg/mL],MIC (Cryptococcus neoformans) [µg/mL],MIC (Staphylococcus aureus [2]) [µg/mL],MIC (Pseudomonas aeruginosa) [µg/mL],MIC (Klebsiella pneumoniae) [µg/mL],MIC (Escherichia coli) [µg/mL],MIC (Acinetobacter baumannii) [µg/mL],MIC (Candida albicans [3]),MIC (Staphylococcus aureus [4]) [µg/mL],Compound,CC50 (HEK293; [5]) [µg/mL],CC50 (HEK293)
> 32,> 32,> 32,> 32,> 32,> 32,> 32,–,–,COCCOC1CCN(CCNC(=O)c2cc(NC(=O)c3cc(NC(=O)c4ccc(/C=C/c5ccc6nonc6c5)cc4)cn3C)cn2C)CC1.O=S(=O)(O)O,3.84,–
> 32,> 32,0.5,> 32,> 32,> 32,> 32,–,–,COCCOC1CCN(CCNC(=O)c2cc(NC(=O)c3cc(NC(=O)c4ccc(/C=C/c5cnc6ccccc6c5)cc4)cn3C)cn2C)CC1,1.96,–
> 32,–,8,> 32,> 32,> 32,> 32,16 µg/mL and 32 µg/mL,4,COc1cccc(/C=C/c2ccc(C(=O)Nc3cc(C(=O)Nc4cc(C(=O)NCCC(=N)N)n(C)c4)n(C)c3)cc2)c1.O=C(O)C(F)(F)F,15.8,10.1 µg/mL and 10.7 µg/mL
> 32,16,> 32,> 32,> 32,> 32,> 32,–,–,COc1ccc(/C=C/c2ccc(C(=O)Nc3cc(C(=O)Nc4cc(C(=O)NCCN5CCCCC5)n(CCCc5ccccc5)c4)n(C)c3)cn2)cc1.O=C(O)C(F)(F)F.O=C(O)C(F)(F)F,> 32,–
4,4,4,> 32,> 32,> 32,> 32,–,–,Cn1cc(NC(=O)c2cc(NC(=O)c3ccc(/C=C/c4ccc5ccccc5n4)cc3)cn2C)cc1C(=O)NCCN1CCOCC1.O=C(O)C(F)(F)F,1.95,–
> 32,> 32,> 32,> 32,> 32,> 32,> 32,–,–,Cn1cc(NC(=O)c2cc(NC(=O)c3ccc(/C=C/c4cc5ccccc5nc4On4nnc5ccccc54)cc3)cn2C)cc1C(=O)NCCN1CCOCC1.O=C(O)C(F)(F)F,> 32,–
> 32,> 32,> 32,> 32,> 32,> 32,> 32,–,–,CC(=O)/C=C/c1ccc(C(=O)Nc2cc(C(=O)Nc3cc(C(=O)NCCN4CCOCC4)n(C)c3)n(C)c2)cc1.O=C(O)C(F)(F)F,7.01,–
32,16,0.5,> 32,> 32,> 32,> 32,32 µg/mL and >32 µg/mL,1,CN(C)CCNC(=O)c1cc(NC(=O)c2cc(NC(=O)c3ccc(/C=C/c4cnc5ccccc5c4)cc3)cn2C)cn1C.O=C(O)C(F)(F)F.O=C(O)C(F)(F)F,–,4.83 µg/mL and 2.72 µg/mL and 6.4 µg/mL
